Test results published in patent publication US11866502B2, “Anti-FGFR2 antibodies and methods of use thereof” (Regeneron Pharmaceuticals, Inc., priority 2020, dated 2024).
Read-outs that look alike come from different tables or passages of the source.

How the values were obtained:
[1] = test system: SNU-16, MFM-223, NCI-H716, or IM-9 cells; assay: In vitro cytotoxicity assay, several cell lines; assay type: cell-based, human; settings: for IC50: Homo sapiens, read-out: IC50 values
Experimental: (§1) To test the ability of anti-FGFR2 antibody drug conjugates (ADCs) disclosed herein to kill human cell lines, an in vitro cytotoxicity assay was performed. In vitro cytotoxicity of the anti-FGFR2 ADCs, isotype control ADCs, and reference free payloads were evaluated using the CellTiter-Glo 2.0 Assay Kit (Promega, Cat #G9243), in which the quantity of ATP present is used to determine the number of viable cells in culture. The payloads Maytansinoid 1A, Maytansinoid 1A* (a cell permeable equivalent of Maytansinoid 1A), and Tubulysin 1A were tested as free payloads, and the unconjugated antibodies, including comparator antibodies, were used as controls.
(§2) Five-fold serial dilutions of free payloads were prepared in 100% DMSO, transferred to fresh dilution media, and then added to the cells at a final constant DMSO concentration of 0.2% and final payload concentrations ranging from 20 nM to 0.051 pM. The last well in each dilution series served as an untreated control and included media alone or media plus 0.2% DMSO and was plotted as a continuation of the 5-fold serial dilution. Six days later, 100 uL of CellTiter Glo 2.0 was added to each well, plates were mixed for 2 minutes on an orbital shaker, and plates were incubated at room temperature for 10 minutes. Relative light units (RLUs) were measured on an Envision luminometer (Perkin Elmer) and cell viability was expressed as a percentage of the untreated (100% viable) cells. IC50 values were determined using a four-parameter logistic equation over a 10-point dose response curve (GraphPad Prism). The maximum % kill was also determined for each test article as follows: 100−minimum percent viability.
A comparator anti-FGFR2 ADC that recognizes both FGFR2b and FGFR2c and is conjugated to an auristatin payload (Comp2-BAY-LP) was also tested for cytotoxicity.

SNU-16 cells [2] = assay: In vitro cytotoxicity assay (CellTiter-Glo 2.0), SNU-16 cells; assay type: cell-based, human; settings: for Max % Kill: SNU-16, up to 20 nM
Experimental: as §1
as §2, with “Five-fold serial dilutions of anti-FGFR2 ADCs or isotype control ADCs were prepared in dilution media (Optimem+0.1% BSA) and added to cells at final concentrations ranging from 20 nM to 0.051 pM (concentrations were corrected for the DAR and are dosed based on the effective payload concentration). Five-fold” for “Five-fold”

IM-9 cells = assay: In vitro cytotoxicity assay (CellTiter-Glo 2.0), IM-9 cells; assay type: cell-based, human; settings: for Max % Kill: IM-9, up to 20 nM
Experimental: as §1
as §2, with “Five-fold serial dilutions of anti-FGFR2 ADCs or isotype control ADCs were prepared in dilution media (Optimem+0.1% BSA) and added to cells at final concentrations ranging from 20 nM to 0.051 pM (concentrations were corrected for the DAR and are dosed based on the effective payload concentration). Five-fold” for “Five-fold”

NCI-H716 cells = assay: In vitro cytotoxicity assay (CellTiter-Glo 2.0), NCI-H716 cells; assay type: cell-based, human; settings: for Max % Kill: NCI-H716, up to 20 nM
Experimental: as §1
as §2, with “Five-fold serial dilutions of anti-FGFR2 ADCs or isotype control ADCs were prepared in dilution media (Optimem+0.1% BSA) and added to cells at final concentrations ranging from 20 nM to 0.051 pM (concentrations were corrected for the DAR and are dosed based on the effective payload concentration). Five-fold” for “Five-fold”

NALM-6 cells = assay: In vitro bystander assay, NALM-6 monoculture; assay type: cell-based
Experimental: (§3) Five-fold serial dilutions of anti-FGFR2 ADCs or isotype control ADCs were prepared in dilution media (Optimem+0.1% BSA) and added to cells at final concentrations ranging from 20 nM to 0.051 pM (concentrations were corrected for the DAR and are dosed based on the effective payload concentration). Five-fold serial dilutions of free payloads were prepared in 100% DMSO, transferred to fresh dilution media, and then added to the cells at a final constant DMSO concentration of 0.2% and final payload concentrations ranging from 20 nM to 0.051 pM. […] Relative light units (RLUs) were measured on an Envision luminometer (Perkin Elmer) and cell viability was expressed as a percentage of the untreated (100% viable) cells. IC50 values were determined using a four-parameter logistic equation over a 10-point dose response curve (GraphPad Prism). The maximum % kill was also determined for each test article as follows: 100−minimum percent viability.
(§4) The ability of the anti-FGFR2 ADCs to induce cytotoxicity in FGFR2 negative cells through release of the payload in FGFR2 positive cells, i.e., bystander activity, was also assessed. […] Cytotoxicity was assessed as described previously for tumor cell lines except that three-fold serial dilutions were performed for all test articles with concentrations ranging from 100 nM to 15.2 pM, and cells were incubated with test articles for 5 days.

SNU-16 + NALM-6 Cells = assay: In vitro bystander assay, SNU-16 + NALM-6 coculture (1:1); assay type: cell-based
Experimental: as §3, §4

SNU-16 cells [3] = assay: In vitro bystander assay, SNU-16 monoculture; assay type: cell-based, human
Experimental: as §3, §4

MFM-223 cells = assay: In vitro cytotoxicity assay (CellTiter-Glo 2.0), MFM-223 cells; assay type: cell-based, human; settings: for Max % Kill: MFM-223, up to 20 nM
Experimental: as §1
as §2, with “Five-fold serial dilutions of anti-FGFR2 ADCs or isotype control ADCs were prepared in dilution media (Optimem+0.1% BSA) and added to cells at final concentrations ranging from 20 nM to 0.051 pM (concentrations were corrected for the DAR and are dosed based on the effective payload concentration). Five-fold” for “Five-fold”

FGFR2 positive tumors = settings: cited from earlier work
[4] = minimum tolerated dose below the therapeutic threshold estimated preclinically; trial terminated early; cited from earlier work
hFGFR2b.mmh = target: T1, hFGFR2b.mmh (Homo sapiens, UniProt P21802); assay: Biacore surface plasmon resonance binding kinetics to hFGFR2b.mmh; settings: 25° C.
T1 construct: myc-myc-hexahistidine (MMH) (C); made in house
T1 sequence (P21802 with tags, fused parts or gaps isoform P21802-3): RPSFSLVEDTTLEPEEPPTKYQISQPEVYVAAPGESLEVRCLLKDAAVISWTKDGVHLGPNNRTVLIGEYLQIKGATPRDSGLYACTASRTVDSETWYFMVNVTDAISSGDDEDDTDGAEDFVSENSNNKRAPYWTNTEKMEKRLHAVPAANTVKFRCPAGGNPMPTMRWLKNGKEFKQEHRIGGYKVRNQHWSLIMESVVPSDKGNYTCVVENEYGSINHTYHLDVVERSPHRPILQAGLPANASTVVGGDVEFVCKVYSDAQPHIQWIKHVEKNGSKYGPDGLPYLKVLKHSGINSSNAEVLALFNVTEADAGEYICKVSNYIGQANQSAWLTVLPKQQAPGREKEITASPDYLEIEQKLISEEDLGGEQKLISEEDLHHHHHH
Experimental: The Biacore sensor surface was derivatized by amine coupling with a monoclonal mouse anti-human Fc antibody (REGN2567 or Jackson Cat. […] Human FGFR2b and Human FGFR2c were prepared in-house expressing a C-terminal myc-myc-hexahistidine tag ([…] NO: 57; […] NO: 58). […] Association of hFGFR2b-MMH or hFGFR2c-MMH to each of the captured ADCs and monoclonal antibodies was monitored for 4 minutes. Subsequently, dissociation was monitored for 10 minutes in HBS-EP running buffer. Anti-human Fc surface was regenerated by a brief injection of 20 mM H3PO4. All binding kinetic experiments were performed at 25° C. […] All sensorgrams were double referenced by subtracting buffer injection sensorgram signal from the corresponding analyte sensorgram, thereby removing artifacts caused by dissociation of the antibody from the capture surface. […] [formula]

hFGFR2c.mmh = target: T2, hFGFR2c.mmh (Homo sapiens, UniProt P21802); assay: Biacore surface plasmon resonance binding kinetics to hFGFR2c.mmh; settings: 25° C.
T2 construct: myc-myc-hexahistidine (MMH) (C); made in house
T2 sequence (P21802 with tags, fused parts or gaps): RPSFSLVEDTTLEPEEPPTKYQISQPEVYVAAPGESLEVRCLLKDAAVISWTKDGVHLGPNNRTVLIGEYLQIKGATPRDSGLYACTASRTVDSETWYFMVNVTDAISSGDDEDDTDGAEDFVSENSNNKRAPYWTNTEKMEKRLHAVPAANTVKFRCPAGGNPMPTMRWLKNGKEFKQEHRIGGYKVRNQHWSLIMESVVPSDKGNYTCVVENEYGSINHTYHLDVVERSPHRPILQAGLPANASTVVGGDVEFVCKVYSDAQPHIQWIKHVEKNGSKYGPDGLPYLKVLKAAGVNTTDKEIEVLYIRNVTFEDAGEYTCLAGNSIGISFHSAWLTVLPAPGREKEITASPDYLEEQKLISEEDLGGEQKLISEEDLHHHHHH
Experimental: The equilibrium dissociation constants (KD values) for hFGFR2b.mmh binding to anti-FGFR2 antibodies conjugated with Tubulysin (“tubulysin 1ALP”), Auristatin (“auristatin LP1”), or mc-VC-PAB-NMe-C3-May (“maytansinoid 1ALP”) were determined using a real-time surface plasmon resonance biosensor assay on a Biacore 2000 or a Biacore 4000 instrument. The Biacore sensor surface was derivatized by amine coupling with a monoclonal mouse anti-human Fc antibody (REGN2567 or Jackson Cat. No #109-005-098) to capture anti-FGFR2 ADC and parent unmodified antibodies expressed with human constant regions. Biacore binding studies were performed in HBS-EP running buffer (0.01M HEPES pH 7.4, 0.15M NaCl, 3 mM EDTA, 0.05% v/v Surfactant P20). […] Association of hFGFR2b-MMH or hFGFR2c-MMH to each of the captured ADCs and monoclonal antibodies was monitored for 4 minutes. Subsequently, dissociation was monitored for 10 minutes in HBS-EP running buffer. […] Kinetic association (ka) and dissociation (kd) rate constants were determined by fitting the real-time sensorgrams to a 1:1 binding model using Scrubber 2.0c curve fitting software. […] Binding dissociation equilibrium constants (KD) and dissociative half-lives (t½) were calculated from the kinetic rate constants as: […]

In the case of `C#CCCCON(C(=O)[C@@H](NC(=O)[C@H]1CCCCN1C)[C@@H](C)CC)[C@H](C[C@@H](OC(C)=O)c1nc(C(=O)N[C@@H](Cc2ccc(N)cc2)CC(C)(C)C(=O)O)cs1)C(C)C` [Tubulysin 1A], the IC50 [1] is reported as 0.00369 to 0.0743 nM, the IC50 (SNU-16 cells [2]; Homo sapiens, SNU-16, 144 h) is reported as 0.00369 nM and the “Max % Kill” value (SNU-16 cells [2]; 6 days) is reported as 95.1%. For the same molecule, the IC50 (IM-9 cells; Homo sapiens, IM-9, 144 h) was 0.0212 nM, the “Max % Kill” value (IM-9 cells; 6 days) was 94.6% and the IC50 (NCI-H716 cells; Homo sapiens, NCI-H716, 144 h) was 0.0743 nM. For the same molecule, the “Max % Kill” value (NCI-H716 cells; 6 days) was 84.9%, the IC50 (NALM-6 cells; Homo sapiens, NALM-6, 120 h) was 0.0709 nM and the “Max % Kill” value (NALM-6 cells; NALM-6 monoculture, 5 days) was 99.9%. The IC50 (SNU-16 + NALM-6 Cells; 120 h) was 0.166 nM, the “Max % Kill” value (SNU-16 + NALM-6 Cells; SNU-16 + NALM-6 1:1 coculture, 5 days) was 99.5% and the IC50 (SNU-16 cells [3]; Homo sapiens, SNU-16, 120 h) was 0.0184 nM. The “Max % Kill” value (SNU-16 cells [3]; SNU-16 monoculture, 5 days) was 99.3%, the IC50 (MFM-223 cells; Homo sapiens, MFM-223, 144 h) was 0.00376 nM and the “Max % Kill” value (MFM-223 cells; 6 days) was 89.7%.

In the case of `CNCCC(=O)N(C)[C@@H](C)C(=O)O[C@H]1CC(=O)N(C)c2cc(cc(OC)c2Cl)C/C(C)=C/C=C/[C@@H](OC)[C@@]2(O)C[C@H](OC(=O)N2)[C@@H](C)[C@@H]2O[C@@]12C` [maytansinoid 1A], the IC50 ([1]; all tested cells, lower end of range, upper end >20 nM) is reported as no less than 4.63 nM, the IC50 (SNU-16 cells [2]; Homo sapiens, 144 h, SNU-16 (FGFR2b positive), 6 days, read-out: IC50) is reported as greater than 20 nM and the “Max % Kill” value (SNU-16 cells [2]; 6 days) is reported as 9.2%. For the same molecule, the IC50 (IM-9 cells; Homo sapiens, 144 h, IM-9 (non-FGFR2 expressing), 6 days, read-out: IC50) was greater than 20 nM, the “Max % Kill” value (IM-9 cells; 6 days) was 3.7% and the IC50 (NCI-H716 cells; Homo sapiens, 144 h, NCI-H716 (low FGFR2b, high FGFR2c), 6 days, read-out: IC50) was greater than 20 nM. The “Max % Kill” value (NCI-H716 cells; 6 days) was 6.4%, the IC50 (MFM-223 cells; Homo sapiens, MFM-223, 144 h, read-out: IC50) was greater than 20 nM and the “Max % Kill” value (MFM-223 cells; 6 days) was 18.1%.

B1: Bemarituzumab: anti-FGFR2 therapy (antibody, chains of the INN, looked up, V domains shown)
VH: QVQLVQSGAEVKKPGSSVKVSCKASGYIFTTYNVHWVRQAPGQGLEWIGSIYPDNGDTSYNQNFKGRATITADKSTSTAYMELSSLRSEDTAVYYCARGDFAYWGQGTLVTVSS
VL: DIQMTQSPSSLSASVGDRVTITCKASQGVSNDVAWYQQKPGKAPKLLIYSASYRYTGVPSRFSGSGSGTDFTFTISSLQPEDIATYYCQQHSTTPYTFGQGTKLEIK
For B1, the “treatment outcome” value (FGFR2 positive tumors) is listed as “improvements in early survival and advanced disease”.

B2: Aprutumab ixodotin: FGFR2 antibody conjugated to auristatin (conjugate, chains of the INN, looked up)
VH: EVQLLESGGGLVQPGGSLRLSCAASGFTFSSYAMSWVRQAPGKGLEWVSAISGSGTSTYYADSVKGRFTISRDNSKNTLYLQMNSLRAEDTAVYYCARVRYNWNHGDWFDPWGQGTLVTVSS
VL: QSVLTQPPSASGTPGQRVTISCSGSSSNIGNNYVSWYQQLPGTAPKLLIYENYNRPAGVPDRFSGSKSGTSASLAISGLRSEDEADYYCSSWDDSLNYWVFGGGTKLTVL
modifications: auristatin payload conjugate
notes: FGFR2 antibody conjugated to auristatin
For B2, the “tolerability in clinical testing” value [4] is given as “poorly tolerated”.

B3: Comp1: Comparator (Five Prime Therapeutics): humanized anti-FGFR2b isoform antibody of Catenacci et al. (Bemarituzumab, FPA144) (antibody, chains of the INN, looked up, V domains shown)
VH: B1 VH
VL: B1 VL
With B3 the EC50 ([1]; all tested lines, unconjugated antibodies) was greater than 20 nM, the IC50 (SNU-16 cells [2]; SNU-16 (FGFR2b positive), 6 days, read-out: IC50) was greater than 20 nM and the “Max % Kill” value (SNU-16 cells [2]; 6 days) was 0.0%. The Kd (hFGFR2b.mmh) was 60.8 nM, the “ka” value (hFGFR2b.mmh) was 77400 M⁻¹ s⁻¹ and the “kd” value (hFGFR2b.mmh) was 0.00471 s⁻¹. The “Antigen Bound (RU)” value (hFGFR2b.mmh; antibody or ADC captured on anti-human Fc surface) was 68.3 RU, the “t1/2” value (hFGFR2b.mmh; dissociative half-life) was 2.5 min and the IC50 (IM-9 cells; IM-9 (non-FGFR2 expressing), 6 days, read-out: IC50) was greater than 20 nM. For the same molecule, the “Max % Kill” value (IM-9 cells; 6 days) was 3.8%, the IC50 (NCI-H716 cells; NCI-H716 (low FGFR2b, high FGFR2c), 6 days, read-out: IC50) was greater than 20 nM and the “Max % Kill” value (NCI-H716 cells; 6 days) was 9.9%. For the same molecule, the IC50 (MFM-223 cells; MFM-223 (FGFR2b positive), 6 days, read-out: IC50) was greater than 20 nM, the “Max % Kill” value (MFM-223 cells; 6 days) was 0.8% and the Kd (hFGFR2c.mmh) was greater than 30 nM. The “Antigen Bound (RU)” value (hFGFR2c.mmh; antibody captured on anti-human Fc surface) was 0.6 RU.
